According to patent US10040790B2, “Bicyclic heterocycles as FGFR inhibitors” (Incyte Corporation, priority 2013, dated 2018):

Tests used:
Assay type in all cases: biochemical
FGFR1 = FGFR1 (Homo sapiens (Human), UniProt P11362); assay: FGFR Enzymatic Assay (FRET peptide phosphorylation), FGFR1; details: ATP 210 μM, enzyme 0.02 nM
Experimental: (§1) The inhibitor potency of the exemplified compounds was measured in an enzyme assay that measures peptide phosphorylation using FRET measurements to detect product formation. Inhibitors were serially diluted in DMSO and a volume of 0.5 μL was transferred to the wells of a 384-well plate. For FGFR3, a 10 μL volume of FGFR3 enzyme (Millipore) diluted in assay buffer (50 mM HEPES, 10 mM MgCl2, 1 mM EGTA, 0.01% Tween-20, 5 mM DTT, pH 7.5) was added to the plate and pre-incubated for 5-10 minutes. Appropriate controls (enzyme blank and enzyme with no inhibitor) were included on the plate. The assay was initiated by the addition of a 10 μL solution containing biotinylated EQEDEPEGDYFEWLE peptide substrate (SEQ ID NO: 1) and ATP (final concentrations of 500 nM and 140 μM respectively) in assay buffer to the wells. The plate was incubated at 25° C. for 1 hr. The reactions were ended with the addition of 10 μL/well of quench solution (50 mM Tris, 150 mM NaCl, 0.5 mg/mL BSA, pH 7.8; 30 mM EDTA with Perkin Elmer Lance Reagents at 3.75 nM Eu-antibody PY20 and 180 nM APC-Streptavidin). The plate was allowed to equilibrate for ˜1 hr before scanning the wells on a PheraStar plate reader (BMG Labtech).
(§2) FGFR1 and FGFR2 were measured under equivalent conditions with the following changes in enzyme and ATP concentrations: FGFR1, 0.02 nM and 210 μM, respectively and FGFR2, 0.01 nM and 100 μM, respectively. The enzymes were purchased from Millipore or Invitrogen.
(§3) GraphPad prism3 was used to analyze the data. The IC50 values were derived by fitting the data to the equation for a sigmoidal dose-response with a variable slope. Y=Bottom+(Top−Bottom)/(1+10^((Log IC50−X)*HillSlope)) where X is the logarithm of concentration and Y is the response.

FGFR2 = FGFR2 (Homo sapiens (Human), UniProt P21802); assay: FGFR Enzymatic Assay (FRET peptide phosphorylation), FGFR2; details: ATP 100 μM, enzyme 0.01 nM
Sequence of FGFR2 (P21802 22-821): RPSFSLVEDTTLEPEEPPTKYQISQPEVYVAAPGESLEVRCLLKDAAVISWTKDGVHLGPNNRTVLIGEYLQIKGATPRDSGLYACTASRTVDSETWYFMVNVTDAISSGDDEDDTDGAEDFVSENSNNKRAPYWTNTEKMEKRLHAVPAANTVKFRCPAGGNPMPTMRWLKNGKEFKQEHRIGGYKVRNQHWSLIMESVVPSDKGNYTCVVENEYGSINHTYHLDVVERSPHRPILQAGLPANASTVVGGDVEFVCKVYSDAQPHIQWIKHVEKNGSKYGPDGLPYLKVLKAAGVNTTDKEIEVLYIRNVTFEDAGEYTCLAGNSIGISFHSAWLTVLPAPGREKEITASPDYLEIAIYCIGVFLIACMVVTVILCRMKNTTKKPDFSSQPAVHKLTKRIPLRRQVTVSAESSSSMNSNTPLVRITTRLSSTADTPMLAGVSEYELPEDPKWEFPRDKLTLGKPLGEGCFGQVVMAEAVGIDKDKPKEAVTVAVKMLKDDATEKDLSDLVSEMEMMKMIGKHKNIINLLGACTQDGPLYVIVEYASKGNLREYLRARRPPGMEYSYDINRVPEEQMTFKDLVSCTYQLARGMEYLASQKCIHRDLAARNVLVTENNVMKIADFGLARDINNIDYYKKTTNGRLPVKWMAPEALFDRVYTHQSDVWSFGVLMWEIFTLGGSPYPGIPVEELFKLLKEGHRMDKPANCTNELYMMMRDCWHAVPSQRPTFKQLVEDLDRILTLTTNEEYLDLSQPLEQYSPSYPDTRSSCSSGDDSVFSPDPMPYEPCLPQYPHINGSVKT
Experimental: as §1, §2, §3

FGFR3 = FGFR3 (Homo sapiens (Human), UniProt P22607); assay: FGFR Enzymatic Assay (FRET peptide phosphorylation), FGFR3; details: ATP 140 μM
Sequence of FGFR3 (P22607 23-806): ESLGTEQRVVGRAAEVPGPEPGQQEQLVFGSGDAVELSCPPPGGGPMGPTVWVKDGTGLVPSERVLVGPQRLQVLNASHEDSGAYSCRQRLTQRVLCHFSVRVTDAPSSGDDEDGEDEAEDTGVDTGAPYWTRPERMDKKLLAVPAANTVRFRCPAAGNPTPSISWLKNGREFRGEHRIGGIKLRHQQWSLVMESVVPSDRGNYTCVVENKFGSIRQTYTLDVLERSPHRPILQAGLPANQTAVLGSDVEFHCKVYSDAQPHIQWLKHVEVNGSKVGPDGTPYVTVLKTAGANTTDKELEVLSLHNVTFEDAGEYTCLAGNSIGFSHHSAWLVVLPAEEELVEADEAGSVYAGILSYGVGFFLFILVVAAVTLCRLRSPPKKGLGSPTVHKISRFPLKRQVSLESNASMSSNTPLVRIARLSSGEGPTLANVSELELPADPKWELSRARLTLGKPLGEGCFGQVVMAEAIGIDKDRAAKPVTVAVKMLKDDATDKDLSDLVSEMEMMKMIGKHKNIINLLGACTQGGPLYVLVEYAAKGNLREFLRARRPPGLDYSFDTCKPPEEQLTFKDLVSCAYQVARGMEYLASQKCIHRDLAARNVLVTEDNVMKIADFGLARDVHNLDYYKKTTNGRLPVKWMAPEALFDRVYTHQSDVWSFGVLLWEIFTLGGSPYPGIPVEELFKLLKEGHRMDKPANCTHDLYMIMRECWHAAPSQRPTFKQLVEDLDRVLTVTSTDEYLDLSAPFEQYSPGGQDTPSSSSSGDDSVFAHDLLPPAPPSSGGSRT
Experimental: as §1, §3

Measured: IC50

Sequence of FGFR1 (P11362 22-822): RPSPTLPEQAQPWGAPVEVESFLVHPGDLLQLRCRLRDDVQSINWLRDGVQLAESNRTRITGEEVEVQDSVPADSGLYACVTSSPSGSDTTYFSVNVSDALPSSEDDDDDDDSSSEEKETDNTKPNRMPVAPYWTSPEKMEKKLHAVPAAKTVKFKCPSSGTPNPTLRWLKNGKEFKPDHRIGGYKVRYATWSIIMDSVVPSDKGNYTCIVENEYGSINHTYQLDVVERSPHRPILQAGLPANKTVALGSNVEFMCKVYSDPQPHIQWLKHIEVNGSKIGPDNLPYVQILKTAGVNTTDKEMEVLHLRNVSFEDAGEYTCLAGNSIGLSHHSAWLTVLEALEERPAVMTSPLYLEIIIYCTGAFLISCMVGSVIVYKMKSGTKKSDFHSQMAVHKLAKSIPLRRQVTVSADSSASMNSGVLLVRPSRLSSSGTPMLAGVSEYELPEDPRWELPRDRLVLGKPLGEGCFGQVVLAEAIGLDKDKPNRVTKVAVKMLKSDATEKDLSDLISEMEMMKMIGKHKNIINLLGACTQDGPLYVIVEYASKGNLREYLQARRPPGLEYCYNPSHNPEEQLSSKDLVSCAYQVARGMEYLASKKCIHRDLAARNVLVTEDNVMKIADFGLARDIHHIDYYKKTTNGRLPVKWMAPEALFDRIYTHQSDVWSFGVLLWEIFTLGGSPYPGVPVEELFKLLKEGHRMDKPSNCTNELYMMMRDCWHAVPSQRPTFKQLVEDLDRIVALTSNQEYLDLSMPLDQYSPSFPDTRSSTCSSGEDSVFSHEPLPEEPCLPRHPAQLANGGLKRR

COc1cc(OC)c(F)c(N2Cc3cnc(NC4CCCC4)cc3C3(CC3)C2=O)c1F [Example 34, 6′-(cyclopentylamino)-2′-(2,6-difluoro-3,5-dimethoxyphenyl)-1′H-spiro[cyclopropane-1,4′-[2,7]naphthyridin]-3′(2′H)-one]
< 100 nM: all assays above

COc1cc(OC)c(F)c(N2Cc3cnc(N)c(-c4ccc(F)cc4)c3N(C)C2=O)c1F [Example 15, 7-amino-3-(2,6-difluoro-3,5-dimethoxyphenyl)-8-(4-fluorophenyl)-1-methyl-3,4-dihydro-pyrido[4,3-d]pyrimidin-2(1H)-one]
< 100 nM: all assays above

COc1cc(OC)c(F)c(N2Cc3cnc(N)c(-c4ccccc4)c3N(C)C2=O)c1F [Example 14, 7-amino-3-(2,6-difluoro-3,5-dimethoxyphenyl)-1-methyl-8-phenyl-3,4-dihydropyrido[4,3-d]pyrimidin-2(1H)-one]
< 100 nM: all assays above

COc1cc(OC)c(F)c(N2Cc3cnc(N)c(-c4cn[nH]c4)c3N(C)C2=O)c1F [Example 12, 7-amino-3-(2,6-difluoro-3,5-dimethoxyphenyl)-1-methyl-8-(1H-pyrazol-4-yl)-3,4-dihydro-pyrido[4,3-d]pyrimidin-2(1H)-one]
< 100 nM: all assays above

COc1cc(OC)c(F)c(N2Cc3cnc(N)c(Cl)c3N(C)C2=O)c1F [Example 54, 7-amino-8-chloro-3-(2,6-difluoro-3,5-dimethoxyphenyl)-1-methyl-3,4-dihydropyrido[4,3-d]pyrimidin-2(1H)-one]
< 100 nM: all assays above

CCn1cc(-c2c(N)ncc3c2N(C)C(=O)N(c2c(F)c(OC)cc(OC)c2F)C3)cn1 [Example 9, 7-amino-3-(2,6-difluoro-3,5-dimethoxyphenyl)-1-methyl-8-(1-ethyl-1H-pyrazol-4-yl)-3,4-dihydropyrido[4,3-d]pyrimidin-2(1H)-one]
< 100 nM: all assays above

COc1cc(OC)c(F)c(N2Cc3cnc(N)c(-c4ccncc4)c3N(C)C2=O)c1F [Example 17, 7-amino-3-(2,6-difluoro-3,5-dimethoxyphenyl)-1-methyl-8-pyridin-4-yl-3,4-dihydropyrido[4,3-d]pyrimidin-2(1H)-one]
< 100 nM: all assays above

COc1cc(OC)c(F)c(N2Cc3cnc(NCCN4CCOCC4)cc3C3(CC3)C2=O)c1F [Example 23, 2′-(2,6-difluoro-3,5-dimethoxyphenyl)-6′-[(2-morpholin-4-ylethyl)amino]-1′,2′-dihydro-3′H-spiro[cyclopropane-1,4′-[2,7]naphthyridin]-3′-one]
< 100 nM: all assays above

COc1cc(OC)c(F)c(N2Cc3cnc(N)c(OCCN4CCN(C)CC4)c3N(C)C2=O)c1F [Example 6, 7-amino-3-(2,6-difluoro-3,5-dimethoxyphenyl)-1-methyl-8-[2-(4-methylpiperazin-1-yl)ethoxy]-3,4-dihydropyrido[4,3-d]pyrimidin-2(1H)-one]
< 100 nM: all assays above

COc1cc(OC)c(F)c(N2Cc3cnc(NCc4cnn(C)c4)cc3C3(CC3)C2=O)c1F [Example 37, 2′-(2,6-difluoro-3,5-dimethoxyphenyl)-6′-((1-methyl-1H-pyrazol-4-yl)methylamino)-1′H-spiro[cyclopropane-1,4′-[2,7]naphthyridin]-3′(2′H)-one]
< 100 nM: all assays above

COc1cc(OC)c(F)c(N2Cc3cnc(N)cc3C(C)(C)C2=O)c1F [Example 22, 6-amino-2-(2,6-difluoro-3,5-dimethoxyphenyl)-4,4-dimethyl-1,2-dihydro-2,7-naphthyridin-3(4H)-one]
< 100 nM: all assays above

COC(=O)Nc1ncc2c(c1C)N(C)C(=O)N(c1c(F)c(OC)cc(OC)c1F)C2 [Example 48, methyl [3-(2,6-difluoro-3,5-dimethoxyphenyl)-1,8-dimethyl-2-oxo-1,2,3,4-tetrahydropyrido [4,3-d]pyrimidin-7-yl]carbamate]
< 100 nM: all assays above

CCOc1c(N)ncc2c1N(C)C(=O)N(c1c(F)c(OC)cc(OC)c1F)C2 [Example 4, 7-amino-3-(2,6-difluoro-3,5-dimethoxyphenyl)-8-ethoxy-1-methyl-3,4-dihydropyrido[4,3-d]pyrimidin-2(1H)-one]
< 100 nM: all assays above

COc1cc(OC)c(F)c(N2Cc3cnc(N)c(Cc4ccccc4)c3N(C)C2=O)c1F [Example 20, 7-amino-8-benzyl-3-(2,6-difluoro-3,5-dimethoxyphenyl)-1-methyl-3,4-dihydropyrido[4,3-d]pyrimidin-2(1H)-one]
< 100 nM: all assays above

COc1cc(OC)c(F)c(N2Cc3cnc(N)c(-c4cnn(C)c4)c3N(C)C2=O)c1F [Example 8, 7-amino-3-(2,6-difluoro-3,5-dimethoxyphenyl)-1-methyl-8-(1-methyl-1H-pyrazol-4-yl)-3,4-dihydropyrido[4,3-d]pyrimidin-2(1H)-one]
< 100 nM: all assays above
